Results on two compounds are retold here after paper PMC3328449, “Inhibition of Diacylglycerol–Sensitive TRPC Channels by Synthetic and Natural Steroids” (PLoS ONE, 2012).

The target of the assay is T1, hTRPC6 (Homo sapiens, UniProt Q9Y210).
T1 construct: expressed in transfected cells
T1 sequence (Q9Y210 1-931): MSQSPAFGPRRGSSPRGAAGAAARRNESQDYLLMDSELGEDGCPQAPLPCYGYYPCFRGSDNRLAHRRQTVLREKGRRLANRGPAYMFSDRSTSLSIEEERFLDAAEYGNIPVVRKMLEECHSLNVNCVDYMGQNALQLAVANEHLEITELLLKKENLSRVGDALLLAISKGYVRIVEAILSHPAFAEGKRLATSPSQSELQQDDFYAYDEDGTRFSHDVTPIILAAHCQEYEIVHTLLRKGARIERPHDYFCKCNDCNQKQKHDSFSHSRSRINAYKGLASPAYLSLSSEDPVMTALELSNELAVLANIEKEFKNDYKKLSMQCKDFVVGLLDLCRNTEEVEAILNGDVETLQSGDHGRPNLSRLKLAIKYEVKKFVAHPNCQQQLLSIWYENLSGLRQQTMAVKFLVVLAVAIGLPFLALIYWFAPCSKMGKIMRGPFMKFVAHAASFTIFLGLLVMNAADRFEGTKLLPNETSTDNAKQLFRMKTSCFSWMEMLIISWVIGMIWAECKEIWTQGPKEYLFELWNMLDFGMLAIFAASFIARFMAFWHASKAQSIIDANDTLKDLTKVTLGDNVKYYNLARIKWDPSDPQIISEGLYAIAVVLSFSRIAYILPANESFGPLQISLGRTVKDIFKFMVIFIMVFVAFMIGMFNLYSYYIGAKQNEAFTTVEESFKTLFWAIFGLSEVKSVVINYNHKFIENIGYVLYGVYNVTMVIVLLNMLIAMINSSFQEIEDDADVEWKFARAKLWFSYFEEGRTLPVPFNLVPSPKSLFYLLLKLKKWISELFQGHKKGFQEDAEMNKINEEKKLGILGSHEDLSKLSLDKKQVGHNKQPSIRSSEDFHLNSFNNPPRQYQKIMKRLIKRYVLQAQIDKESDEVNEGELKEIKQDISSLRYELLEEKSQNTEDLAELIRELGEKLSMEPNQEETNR
The assay can be described thus: OAG-induced Ca2+ entry, fluo-4 fluorometric imaging plate reader, TRPC6 HEK-FITR cells. The following applies: for IC50: TRPC6 HEK-FITR cells, fluo-4, area under the curve, 10 min pre-incubation, read-out: IC50, inhibition of OAG-induced Ca2+ entry via TRPC6; for Hill slope n, inhibition of TRPC6-mediated Ca2+ entry: fit to Hill model. The format is cell-based. The protocol: Cells were grown at 37°C in a humidified atmosphere (5% or 7% CO2) under standard cell culture conditions. Stable human embryonic kidney (HEK) cell lines expressing recombinant mTRPC4ß (GenBank accession number AAC05178); mTRPC5 (GenBank accession number NM_009428) or hTRPC6 (GenBank accession number AF080394) under the control of a tetracycline-inducible promoter were generated using the Flp-In T-Rex (FITR) system (Invitrogen, Karlsruhe, Germany). TRPC4/5/6 HEK-FITR cells were maintained in Dulbecco's modified eagle medium (DMEM, with glutaMAX I, 4.5 g/l glucose and […] sodium pyruvate) supplemented with 10% (v/v) fetal bovine serum (Biochrom, Berlin, Germany), 1 mM glutamine, 1 mM MEM sodium pyruvate, 40 μg/ml hygromycin (50 μg/ml for mTRPC5 HEK-FITR cells), and 15 μg/ml blasticidine HCl. Channel expression was induced by supplementing the growth medium for 18-24 h with 1 μg/ml doxycycline. Cells grown to an almost confluent monolayer on black poly-D-lysine coated 96-well plates (Greiner, Frickenhausen, Germany) were washed with standard extracellular solution (140 mM NaCl, 1 mM MgCl2, 5.4 mM KCl, 2 mM CaCl2, 10 mM HEPES, 10 mM glucose, pH 7.35) and stained (30 min, room temperature) with dye solution (2 μM fluo-4 AM, 0.02% pluronic F127, 0.1% bovine serum albumin in standard extracellular solution). Cells were washed and either incubated with standard extracellular solution only or with different concentrations of test compounds for 10 min. Fluo-4 fluorescence was excited at 488 nm with an argon laser and measured using a fluorometric imaging plate reader (Molecular Devices, Sunnyvale, USA). All fluorometric measurements were performed at room temperature. […] Baseline fluorescence in non-OAG-stimulated cells and OAG-stimulated Ca^2+ influx into control cells not treated with inhibitors were defined as 0% and 100% influx, respectively. For statistical analysis, analysis of variance was performed with Origin 6.0 software (Microcal Software Inc., Northampton, USA). […] Averaged data is expressed as means ± SEM.

Values joined by “and” are separate entries in the source; they are usually repeats but may differ in a detail not shown here. Identical values can stand only once.

With `C#C[C@]1(OC(C)=O)CC[C@H]2[C@@H]3CCC4=CC(=NO)CC[C@@H]4[C@H]3CC[C@@]21CC` (mixture of isomers) [norgestimate], the IC50 is 3 to 5 µM and 5.2 µM; the “Hill slope n, inhibition of TRPC6-mediated Ca2+ entry” value came out at 0.97. Moreover, the “Effect on TRPC6-mediated Ca2+ entry” value (30 µM pre-incubation, OAG-induced) is recorded as “significantly reduced”.
For the compound `CC(=O)[C@H]1CC[C@H]2[C@@H]3CCC4=CC(=O)CC[C@]4(C)[C@H]3CC[C@]12C` [progesterone], the IC50 was determined as 18 µM and the “Hill slope n, inhibition of TRPC6-mediated Ca2+ entry” value is on record as 1.2.

Broadly, the IC50 is the concentration at which inhibition is half-maximal.
